Measurements taken from US20020052295A1, “Diacyl derivatives of propylene diamine having herbicidal activity” (priority 1999, published 2002).

Legend:
[1] = tested on: POROL; experiment: Post-emergence herbicidal activity on POROL (common purslane; table head prints PORAL); assay type: in vivo, Portulaca oleracea; conditions: post-emergence spray; lowest tested rate with 80% or greater inhibition; about 14 days after treatment
In short: (§1)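 Seeds are sown in topsoil, covered with topsoil/Rediearth, and subirrigated until plants reach treatment stage (typically 9 to 14 days). Plants are then sprayed with compound in 50:50 acetone and water at 3,100 l/ha. Inhibition is rated against untreated plants at about 14 days.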

[2] = tested on: DIGSA; experiment: Pre-emergence herbicidal activity on DIGSA (large crabgrass); assay type: in vivo, Digitaria sanguinalis
In short: (§2)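 Whole-plant pre-emergence assay: compound diluted into 50:50 acetone:water and applied over covered seeds in sterilized soil. Growth at 30/21 °C under mist/subirrigation; inhibition vs untreated at ~14 days, reported as GR80 over rates to typically 1000 g/ha.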

[3] = tested on: DATST; experiment: Pre-emergence herbicidal activity on DATST (jimsonweed); assay type: in vivo, Datura stramonium
In short: as §2

[4] = tested on: ABUTH; experiment: Pre-emergence herbicidal activity on ABUTH (velvetleaf); assay type: in vivo, Abutilon theophrasti
In short: as §2

[5] = tested on: SORVU; experiment: Post-emergence herbicidal activity on SORVU (shattercane); assay type: in vivo, Sorghum vulgare; conditions: post-emergence spray; lowest tested rate with 80% or greater inhibition; about 14 days after treatment
In short: as §1

[6] = tested on: ECHCG; experiment: Post-emergence herbicidal activity on ECHCG (barnyardgrass); assay type: in vivo, Echinochloa crus-galli; conditions: post-emergence spray; lowest tested rate with 80% or greater inhibition; about 14 days after treatment
In short: as §1

[7] = tested on: CONAR; experiment: Pre-emergence herbicidal activity on CONAR (field bindweed); assay type: in vivo, Convolvulus arvensis
In short: as §2

[8] = tested on: PANDI; experiment: Pre-emergence herbicidal activity on PANDI (fall panicum); assay type: in vivo, Panicum dichotomiflorum
In short: as §2

[9] = tested on: dicotyledonous species; experiment: Pre-emergence test (later test), average GR80 on dicotyledonous species; assay type: in vivo; conditions: average over dicotyledonous species
Excerpt: (§3) All such uses, and the biological activity enabling such uses, are embraced by the term “herbicidal” herein. Tables 15 and 16 summarize results of tests conducted as described below to determine the pre-emergence herbicidal activity, in the form of a GR80 value, of illustrative compounds of this invention. […] Where herbicidal activity was evident but 80% inhibition was not achieved at the highest rate tested (typically 1000 g/ha), an asterisk (*) is shown in the following tables. Herbicidal activity evident in the form of symptoms of phytotoxicity, in the absence of at least 80% inhibition at any rate, is indicated in the tables by “phyto”. A blank cell in the following tables indicates no herbicidal or phytotoxic response at any rate tested.
(§4) The pre-emergence tests were conducted by the following procedure. Topsoil was sieved to pass through a 1.27 cm screen. Fertilizer was added to the topsoil and the mixture was then sterilized by heating. The topsoil mixture was placed in a pot and compacted to a depth of 1.0 to 1.25 cm from the top of the pot. Seeds of each of several monocotyledonous and dicotyledonous annual plant species were placed on top of the soil. […]
(§5) Approximately 14 days after planting and treating, the plants were observed and herbicidal efficacy recorded as percent inhibition by comparison with untreated plants. […]

[10] = tested on: SETFA; experiment: Post-emergence herbicidal activity on SETFA (giant foxtail); assay type: in vivo, Setaria faberi; conditions: post-emergence spray; lowest tested rate with 80% or greater inhibition; about 14 days after treatment
In short: as §1

[11] = tested on: POROL; experiment: Pre-emergence herbicidal activity on POROL (common purslane); assay type: in vivo, Portulaca oleracea
In short: as §2

[12] = tested on: CHEAL; experiment: Post-emergence herbicidal activity on CHEAL (common lambsquarters); assay type: in vivo, Chenopodium album; conditions: post-emergence spray; lowest tested rate with 80% or greater inhibition; about 14 days after treatment
In short: as §1

[13] = tested on: AMARE; experiment: Post-emergence herbicidal activity on AMARE (redroot pigweed); assay type: in vivo, Amaranthus retroflexus; conditions: post-emergence spray; lowest tested rate with 80% or greater inhibition; about 14 days after treatment
In short: as §1

[14] = tested on: SOLNI; experiment: Post-emergence herbicidal activity on SOLNI (black nightshade); assay type: in vivo, Solanum nigrum; conditions: post-emergence spray; lowest tested rate with 80% or greater inhibition; about 14 days after treatment
In short: as §1

[15] = tested on: SOLNI; experiment: Pre-emergence herbicidal activity on SOLNI (black nightshade); assay type: in vivo, Solanum nigrum
In short: as §2

[16] = tested on: BRAPP; experiment: Pre-emergence herbicidal activity on BRAPP (broadleaf signalgrass); assay type: in vivo, Brachiaria platyphylla
In short: as §2

[17] = tested on: DIGSA; experiment: Post-emergence herbicidal activity on DIGSA (large crabgrass); assay type: in vivo, Digitaria sanguinalis; conditions: post-emergence spray; lowest tested rate with 80% or greater inhibition; about 14 days after treatment
[18] = tested on: SORHA; experiment: Pre-emergence herbicidal activity on SORHA (johnsongrass, seedling); assay type: in vivo, Sorghum halepense
In short: as §2

[19] = tested on: ABUTH; experiment: Post-emergence herbicidal activity on ABUTH (velvetleaf); assay type: in vivo, Abutilon theophrasti; conditions: post-emergence spray; lowest tested rate with 80% or greater inhibition; about 14 days after treatment
In short: as §1

[20] = tested on: BRAPP; experiment: Post-emergence herbicidal activity on BRAPP (broadleaf signalgrass); assay type: in vivo, Brachiaria platyphylla; conditions: post-emergence spray; lowest tested rate with 80% or greater inhibition; about 14 days after treatment
In short: as §1

[21] = tested on: AMARE; experiment: Pre-emergence herbicidal activity on AMARE (redroot pigweed); assay type: in vivo, Amaranthus retroflexus
In short: as §2

[22] = tested on: SETFA; experiment: Pre-emergence herbicidal activity on SETFA (giant foxtail); assay type: in vivo, Setaria faberi
In short: as §2

[23] = tested on: CONAR; experiment: Post-emergence herbicidal activity on CONAR (field bindweed); assay type: in vivo, Convolvulus arvensis; conditions: post-emergence spray; lowest tested rate with 80% or greater inhibition; about 14 days after treatment
In short: as §1

[24] = tested on: DATST; experiment: Post-emergence herbicidal activity on DATST (jimsonweed); assay type: in vivo, Datura stramonium; conditions: post-emergence spray; lowest tested rate with 80% or greater inhibition; about 14 days after treatment
In short: as §1

[25] = tested on: SORVU; experiment: Pre-emergence herbicidal activity on SORVU (shattercane); assay type: in vivo, Sorghum vulgare
In short: as §2

[26] = tested on: CHEAL; experiment: Pre-emergence herbicidal activity on CHEAL (common lambsquarters); assay type: in vivo, Chenopodium album
In short: as §2

[27] = tested on: CIRAR; experiment: Pre-emergence herbicidal activity on CIRAR (canada thistle, seedling); assay type: in vivo, Cirsium arvense
In short: as §2

[28] = tested on: SORHA; experiment: Post-emergence herbicidal activity on SORHA (johnsongrass, seedling); assay type: in vivo, Sorghum halepense; conditions: post-emergence spray; lowest tested rate with 80% or greater inhibition; about 14 days after treatment
In short: as §1

[29] = tested on: PANMI; experiment: Pre-emergence herbicidal activity on PANMI (wild proso millet); assay type: in vivo, Panicum miliaceum
In short: as §2

[30] = tested on: ECHCG; experiment: Pre-emergence herbicidal activity on ECHCG (barnyardgrass); assay type: in vivo, Echinochloa crus-galli
In short: as §2

[31] = tested on: PANMI; experiment: Post-emergence herbicidal activity on PANMI (wild proso millet); assay type: in vivo, Panicum miliaceum; conditions: post-emergence spray; lowest tested rate with 80% or greater inhibition; about 14 days after treatment
[32] = tested on: PANDI; experiment: Post-emergence herbicidal activity on PANDI (fall panicum); assay type: in vivo, Panicum dichotomiflorum; conditions: post-emergence spray; lowest tested rate with 80% or greater inhibition; about 14 days after treatment
In short: as §1

[33] = tested on: monocotyledonous species; experiment: Pre-emergence test (later test), GR80 on monocotyledonous species; assay type: in vivo; conditions: average over monocotyledonous species
Excerpt: as §3, §4, §5

[34] = lowest tested rate giving 80% or greater inhibition, approx. 14 days after planting and treating, greenhouse
[35] = racemic mixture vs enantiomers test, rates tested 1000, 650, 300, 200, 100, 65, 30 and 10 g/ha, lowest rate with 80% or greater inhibition

CC(CNC(=O)c1cccc(C(F)(F)F)c1)NC(=O)c1cccc(C(F)(F)F)c1 (stereo not shown) [Example 5, N,N′-(1,2-propanediylbis)-3-(trifluoromethyl)benzamide]
Post-emergence activity (GR80) PORAL [1]: 750 g/ha
Pre-emergence activity (GR80) on DIGSA [2, 34]: 250 g/ha
Pre-emergence activity (GR80) DIGSA [2, 35]: 200 g/ha
Pre-emergence activity (GR80) on DATST [3, 34]: 500 g/ha
Pre-emergence activity (GR80) DATST [3, 35]: 1000 g/ha
Pre-emergence activity (GR80) on ABUTH [4, 34]: 1000 g/ha
Pre-emergence activity (GR80) ABUTH [4, 35]: * (Where herbicidal activity was evident but 80% inhibition was not achieved at the highest rate tested (typically 1000 g/ha), an asterisk (*) is shown)
Post-emergence activity (GR80) SORVU [5]: [empty]
Post-emergence activity (GR80) ECHCG [6]: [empty]
Pre-emergence activity (GR80) on CONAR [7, 34]: phyto
Pre-emergence activity (GR80) CONAR [7, 35]: phyto
Pre-emergence activity (GR80) on PANDI [8, 34]: 500 g/ha
Pre-emergence activity (GR80) PANDI [8, 35]: 650 g/ha
average pre-emergence GR80 on dicotyledonous species [9]: 535 g/ha
Post-emergence activity (GR80) SETFA [10]: [empty]
Pre-emergence activity (GR80) on PORAL [11, 34]: 250 g/ha
Pre-emergence activity (GR80) PORAL [11, 35]: 650 g/ha
Post-emergence activity (GR80) CHEAL [12]: 500 g/ha
Post-emergence activity (GR80) AMARE [13]: 250 g/ha
Post-emergence activity (GR80) SOLNI [14]: 1000 g/ha
Pre-emergence activity (GR80) on SOLNI [15, 34]: 750 g/ha
Pre-emergence activity (GR80) SOLNI [15, 35]: 300 g/ha
Pre-emergence activity (GR80) on BRAPP [16, 34]: * (Where herbicidal activity was evident but 80% inhibition was not achieved at the highest rate tested (typically 1000 g/ha), an asterisk (*) is shown)
Pre-emergence activity (GR80) BRAPP [16, 35]: phyto
Post-emergence activity (GR80) DIGSA [17]: [empty]
Pre-emergence activity (GR80) on SORHA [18, 34]: phyto
Pre-emergence activity (GR80) SORHA [18, 35]: phyto
Post-emergence activity (GR80) ABUTH [19]: 1000 g/ha
Post-emergence activity (GR80) BRAPP [20]: [empty]
Pre-emergence activity (GR80) on AMARE [21, 34]: 125 g/ha
Pre-emergence activity (GR80) AMARE [21, 35]: 65 g/ha
Pre-emergence activity (GR80) on SETFA [22, 34]: * (Where herbicidal activity was evident but 80% inhibition was not achieved at the highest rate tested (typically 1000 g/ha), an asterisk (*) is shown)
Pre-emergence activity (GR80) SETFA [22, 35]: phyto
Post-emergence activity (GR80) CONAR [23]: 750 g/ha
Post-emergence activity (GR80) DATST [24]: 125 g/ha
Pre-emergence activity (GR80) on SORVU [25, 34]: phyto
Pre-emergence activity (GR80) SORVU [25, 35]: phyto
Pre-emergence activity (GR80) on CHEAL [26, 34]: 250 g/ha
Pre-emergence activity (GR80) CHEAL [26, 35]: 100 g/ha
Pre-emergence activity (GR80) on CIRAR [27, 34]: 250 g/ha
Pre-emergence activity (GR80) CIRAR [27, 35]: * (Where herbicidal activity was evident but 80% inhibition was not achieved at the highest rate tested (typically 1000 g/ha), an asterisk (*) is shown)
Post-emergence activity (GR80) SORHA [28]: [empty]
Pre-emergence activity (GR80) on PANMI [29, 34]: phyto
Pre-emergence activity (GR80) PANMI [29, 35]: 650 g/ha
Pre-emergence activity (GR80) on ECHCG [30, 34]: phyto
Pre-emergence activity (GR80) ECHCG [30, 35]: phyto
Post-emergence activity (GR80) PANMI [31]: [empty]
Post-emergence activity (GR80) PANDI [32]: [empty]
pre-emergence GR80 on monocotyledonous species [33]: 1041 g/ha
